Like-named read-outs stand apart in the source and are kept apart here.
Legend:
[1] = test system: BRB in retinal slice cultures; assay: IgG immunostaining of retinal slice cultures: BRB breach; type: cell-based; settings: for IgG in neurons (indicator of BRB breach): retinal slices treated with histamine with or without lipoxin A4, FIG. 10
Excerpt: Untreated samples served as control. The slices were then processed to generate cryosections for immunostaining. The location of IgG (an indicator of BRB breach) was monitored by immunostaining.

Muller cell processes = assay: GFAP immunostaining of ex vivo retinal culture: Muller cell processes; type: cell-based; settings: retina untreated, histamine only, LXA4 only, or both, FIG. 15
Protocol: This experiment followed the protocol of Example 1. This example illustrates a new analysis added for drug evaluation in ex vivo retinal culture. […] Statistical significance is determined by two-tailed Student's t test. *, P<0.05; **, P<0.01; ***, P<0.001. Mean±SEM is plotted in the graph.

[2] = test system: BBB (blood vessels) in mouse brain organotypic cultures; settings: 450 μM histamine; for blood vessel leakage: 1 hour; for percentage of leaky vessels (IgG extravasated out of blood vessels): 2 mm MBO
Protocol: (§1) Primary mouse brain organotypic cultures were prepared as described previously ((Levin et al., Brain Res. 1298, 194-207, 2009). Briefly, the brains were removed from C57BL/6 mice (n=8) and cut to either 1 mm or 2 mm thickness using a tissue chopper. The brain slices were then placed in medium containing 25% inactivated horse serum, 25% Hanks' BSS, 50% DMEM, and 25 mg/l penicillin-streptomycin (Invitrogen, Carlsbad, Calif.) in 6-well culture dishes and maintained for 30 min at room temperature. The brain slices were then moved to either fresh media (control) or fresh media containing 450 μM histamine (Sigma, Saint Louis, Mo., Cat. No. H7125-1G) in 6-well culture dishes for 1 hr at 37° C. in a 5% CO2-enriched atmosphere. The brain slices were fixed with 4% paraformaldehyde (PFA) in PBS at room temperature and processed for immunohistochemistry as described below.
(§2) The mouse brain organotypic brain slices were stored in 4% PFA overnight at 4° C. The brain slices were then infiltrated with 10% sucrose in PBS for 2 hours, followed by 30% sucrose in PBS overnight at 4° C. under constant, gentle agitation. Using a Leica cryostat, 12 μm thick frozen sections were cut, mounted onto Fisher Super Frost Plus slides, and air dried. Immunohistochemistry for the paraffin-embedded tissues was carried out using procedure well known in the art. Briefly, tissues were deparaffinized using xylene and then rehydrated through a graded series of decreasing concentrations of ethanol. Next, protein antigenicity was enhanced by microwaving sections in citrate buffer. The paraffin-embedded tissues were then processed in the same way as the frozen sections described below.
(§3) Immunohistochemistry for the frozen sections was carried out as previously described ((Levin et al., Brain Res. 1298, 194-207, 2009). Briefly, tissues were rehydrated with PBS for 2 min. The endogenous peroxidase was quenched by treating sections with 0.3% H202 for 30 min. First, sections were incubated in blocking serum for 30 min. at room temperature, and then treated with primary antibodies at appropriate dilutions for 1 hr at room temperature. Next, sections were thoroughly rinsed with PBS, and sections were incubated with biotin-labeled secondary antibody for 30 min. at room temperature. Sections were then treated with the avidin-peroxidase-labeled biotin complex (ABC, Vector Labs, Foster City, Calif.) and visualized by treating with either 3-3-diaminobenzidine-4-HCL (DAB)/H2O2 (Biomeda, Foster City, Calif.) or NovaRed (Vector Labs, Foster City, Calif., Cat. No. SK-4800). Sections were then lightly counterstained with hematoxylin, dehydrated through increasing concentrations of ethanol, cleared in xylene and mounted in Permount. Specimens were examined and photographed with a Nikon FXA microscope, and digital images were recorded using a Nikon DXM1200F digital camera and processed using Image Pro Plus (Phase 3 Imaging, Glen Mills, Pa.) image software.
(§4) Leaky and non-leaky vessels, GFAP-positive and -negative astrocytes, and vimentin-positive and -negative neurons were counted in sections of primary mouse brain organotypic culture slices. Images were optimized and counting was performed using the counting feature of Adobe Photoshop CS3. Three sections were examined per treatment group, with at least ten viewing fields counted from each section, for a total of 30 viewing fields per treatment group. Only blood vessels with endothelial cell nuclei, astrocytes with their nuclei, and neurons with their nuclei within the plane of section were included in the count. […] The percentage of total leaky vessels, GFAP-positive astrocytes, and vimentin-positive neurons for histamine treated and control slices were determined.
(§5) Immunohistochemistry (IHC) was used to evaluate the effects of histamine on BBB permeability and the response of cells within the surrounding brain parenchyma.

[3] = test system: astrocytes in mouse brain organotypic cultures; settings: 450 μM histamine; for GFAP-positive astrocytes (GFAP expression): 1 hr, 2 mm MBO
Protocol: as §1, §2, §3, §4, §5

[4] = test system: neurons in mouse brain organotypic cultures; settings: 450 μM histamine; for vimentin-positive neurons: 2 mm MBO
Protocol: as §1, §2, §3, §4, §5

[5] = test system: GFAP expression in retinal slices; settings: retinal slices treated with histamine 0, 30, 60 or 90 min, FIG. 8
Excerpt: (§6) The slices were then processed to generate cryosections for immunostaining.

[6] = test system: MAP2 expression in retinal slices; settings: retinal slices treated with histamine 0, 30, 60 or 90 min, FIG. 9
Excerpt: as §6

BBB, mouse brain = assay: IgG immunostaining of brain cortex of PT-treated mice: BBB compromise; type: in vivo
Excerpt: This experiment followed the protocol of Example 1. This experiment involved S100B knockout (KO) mice, focusing on age-dependent increase of blood-brain barrier permeability and neuron-binding autoantibodies in SB100KO mice. […] Overlay of IgG immunostaining (red) with DAPI (blue) is presented from cortical region of the brain. (FIG. 18A) In untreated wild type (WT) brains, IgG-positive staining was confined to the microvasculature, indicating intact blood vessels (arrows). […] (FIG. 18C). In the S100BKO mouse brain (KO), even without PT treatment, IgG-positive leaks (marked by white dotted circle) were observed. (FIG. 18D).

retinal neurons = assay: SV2 and MAP2 immunostaining of retina of pertussis toxin treated mice; type: in vivo; settings: pertussis toxin treated wild type mice

For CCCCC[C@H](O)/C=C/C=C\C=C\C=C\[C@@H](O)[C@@H](O)CCCC(=O)O [LXA4, lipoxin A4], which “IgG in neurons (indicator of BRB breach)” value [1] is on record?
The value was “conferred protection from these effects”.

And the “Muller cell processes (GFAP staining, width)” value (Muller cell processes)?
The value was “Rescued”.

With NCCc1c[nH]cn1 [histamine] as the compound, how does the blood vessel leakage ([2]; 1 mm MBOs) read?
Its blood vessel leakage is 30.9%.

And the blood vessel leakage ([2]; 2 mm MBOs)?
Its blood vessel leakage is 24.4%.

What about the “percentage of leaky vessels (IgG extravasated out of blood vessels)” value (shortened to “percentage of leaky vessels”) ([2]; 1 hr, distal portion (700-1050 μm)) of the same compound?
The value was 32.4%.

What about the “percentage of leaky vessels” value ([2]; 1 hr, middle portion (350-700 μm)) of the same compound?
The value was 24.7%.

And the “percentage of leaky vessels” value ([2]; 1 hr, proximal portion (0-350 μm))?
Its value is 19.9%.

And the “perivascular leakage, histamine treated compared to controls, overall” value ([2]; 1 hr, MBO, FIG. 5A)?
The value was “more than two-fold”.

And the astrocyte activation ([3]; 1 hour, 1 mm MBOs)?
Its astrocyte activation is 47.7%.

What about the “GFAP expression by astrocytes” value ([3]; 1 hour, 2 mm MBOs) of the same compound?
The value was 45.7%.

What about the “GFAP-positive astrocytes (GFAP expression)” value (“GFAP-positive astrocytes” for short) ([3]; distal portion) of the same compound?
The value was 48.4%.

What about the “GFAP-positive astrocytes” value ([3]; middle portion) of the same compound?
The value was 45.1%.

What about the “GFAP-positive astrocytes” value ([3]; proximal portion) of the same compound?
Its value is 43.6%.

What about the neuronal damage-responses ([4]; 1 hour, 1 mm MBOs) of the same compound?
The neuronal damage-responses was 51.8%.

What about the “vimentin expression by neurons” value ([4]; 1 hour, 2 mm MBOs) of the same compound?
The value was 46.5%.

And the vimentin-positive neurons ([4]; 1 hr, distal portion)?
Its vimentin-positive neurons is 47.5%.

What about the vimentin-positive neurons ([4]; 1 hr, middle portion) of the same compound?
Its vimentin-positive neurons is 45.1%.

What about the vimentin-positive neurons ([4]; 1 hr, proximal portion) of the same compound?
Its vimentin-positive neurons is 47%.

And the “increase in neurons expressing vimentin compared to control sections” value ([4]; 1 hr, MBO, FIG. 5C)?
Its value is “greater than four-fold”.

What about the “BRB integrity, location of IgG” value ([1]; retinal slices after histamine treatment, FIG. 7) of the same compound?
Its value is “BRB breakdown and extravasated IgG surrounding blood vessels”.

And the “IgG in neurons (indicator of BRB breach)” value [1]?
The value was “neurons were loaded with IgG”.

And the GFAP expression [5]?
The GFAP expression was “elevation in GFAP expression”.

What about the MAP2 expression [6] of the same compound?
The MAP2 expression was “decrease in MAP2 expression”.

What about the “Muller cell processes (GFAP staining, width)” value (Muller cell processes) of the same compound?
Its value is “Compromised”.

Which results are given for Pertussis toxin [PT]?
IgG binding to neurons in brain cortex (BBB, mouse brain; S100BKO mice treated with PT, FIG. 18D): intensely bound by IgG; IgG-positive staining in brain cortex (BBB, mouse brain; wild type (WT) mice with PT treatment, FIG. 18B): IgG-positive microvascular leaks; retinal neuronal damage by SV2 and MAP2 immunostaining (retinal neurons): displays retinal neuronal damages

Reference: patent US20180292390A1 (priority 2015, published 2018)
